Measured values reported in PubChem BioAssay AID1918952 (Molecular Pharmacology Branch, DTP, NCI, 2023).
Several values for one entry are separate records, joined by “and”; a condition that tells them apart may be missing. Equal values may be shown once.

Tested on: LG0703-F948-PDC complex spheroid viability
Test: Anticancer human tumor LG0703-F948-PDC patient-derived lung adenocarcinoma cell line growth inhibition
Settings: for viability, T/C: stronger effect = lower value; for IC50: curve of compound
Excerpt: Multicellular complex tumor spheroid response to LSD1 Inhibitor Iadademstat in combination with a variety of drugs and investigational agents in selected tumor cell lines
The current study was undertaken to assess response to LSD1 inhibitors in combination with standard-of-care drugs and investigational agents in solid tumor complex spheroid models as well as in the K-562 leukemia. Complex spheroids include a stromal component modeled by human endothelial cells (HUVEC) and fibroblasts modeled by human mesenchymal stem cells (MSCs). The concentration ranges selected for each drug and investigational agent were based upon clinically achievable concentrations if the clinical Cmax of the agent was known.
Compounds. The drugs and investigational agents used in this study are listed on Table 1. All of the agents used, including staurosporine (NSC755774) and gemcitabine (NSC613327), were obtained from the Developmental Therapeutics Program, NCI. FDA-approved anticancer drugs are available from the NCI at http://dtp.nci.nih.gov/branches/dscb/oncology_drugset_explanation.html. Drugs and investigational agents were >95% pure by proton nuclear magnetic resonance (NMR) and liquid chromatography/mass spectrometry (LC/MS). Stock solutions were prepared at 400x in DMSO, stored at -70 degrees C, and diluted in fresh medium prior to their use. The final concentration of DMSO in cell culture wells never exceeded 0.25% (v/v). The FDA-approved anticancer drug set is available from the Developmental Therapeutics Program at https://dtp.cancer.gov/organization/dscb/obtaining/available_plates.htm. All drugs and investigational agents were tested over a range starting from a high concentration at or near the clinical Cmax and decreasing in half-log increments. If the clinical Cmax for an agent had not been determined, the highest concentration tested was 10 microM.
Cell Lines. The patient-derived cancer cell (PDC) lines: 292921-168-R-J2-PDC, K24384-001-R-PDC, and 521955-158-R2-J5-PDC pancreatic carcinomas, 556581-035-R-J1 ovarian carcinoma, 324938-238-R-J1-PDC, 855422-203-R-J1-PDC and 883617-216-R-J1-PDC urothelial bladder carcinomas, 743489-274-T-PDC renal cell carcinoma, 138582-R-J1 Merkel cell tumor, K60290-347-R-J1 and K57222-313-R-J1-PDC glioblastomas, 653999-131-R-J2-PDC, LG0703-F948-PDC, and 349418-098-R-PDC non-small cell lung carcinomas, 885512-296-R-J2-PDC, 171881-019-R-J1-PDC breast carcinomas and 186277-243-T-J2-PDC and 233499-124-R-J2-PDC colon carcinomas were obtained from the NCI Patient-Derived Models Repository (PDMR, https://pdmr.cancer.gov). The established cell lines NCI/ADR-RES (RRID:CVCL_14520 and OVCAR-5 (RRID:CVCL_1628) ovarian carcinomas, 786-O (RRID:CVCL_1051) and A498 (RRID:CVCL_A498) renal cell carcinoma, NCI-H211 (ATCC, cat. CRL-5824; RRID:CVCL_1529), NCI-H196 (ATCC, cat. CRL-5823, RRID:CVCL_1509), SW 1271 (ATCC, cat. CRL-2177, RRID:CVCL_1716) and NCI-H1876 (ATCC, cat. CRL-5902, RRID:CVCL_1503) small cell lung carcinomas, MDA-MB-231 (RRID:CVCL_0062) and MDA-MB-468 (RRID:CVCL_0419)breast carcinomas (10-12). Pooled donor human umbilical vein endothelial cells (HUVEC, Lonza, cat. CC-2519) and human mesenchymal stem cells (hMSC, Lonza, cat. PT-2501) were purchased from Lonza (Walkersville, MD).
Cell Culture. All cells were maintained in an incubator at 37 degrees C and 5% CO2 with 95% humidity. The PDC lines were cultured according to standard operating procedures established by the NCI PDMR (https://pdmr.cancer.gov). Briefly all PDCs were thawed and cultured in Matrigel-coated flasks prepared with a working solution of 1X Ham's F-12 nutrient mix, without supplementation (Invitrogen, Waltham, MA, cat. 11765054), 100 U/mL penicillin-streptomycin (Invitrogen, cat. 15140122), and 2.5% Matrigel (Corning Inc., Corning, NY, cat. 354248) for the first three passages. […]
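Also: spheroids exposed to agents for seven days before readout.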
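For viability, T/C in this document: 100% = DMSO vehicle control wells as normalization base.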

IC50	Structure (SMILES)	viability, T/C (compound 0.000316 µM)	viability, T/C (compound 0.001 µM)	viability, T/C (compound 0.00316 µM)	viability, T/C (compound 0.01 µM)	viability, T/C (compound 0.0316 µM)	viability, T/C (compound 0.1 µM)	viability, T/C (compound 0.316 µM)	viability, T/C (compound 1 µM)	viability, T/C (compound 3.16 µM)	viability, T/C (compound 10 µM)	viability, T/C (compound 0.00949 µM)	viability, T/C (compound 0.03 µM)	viability, T/C (compound 0.0949 µM)	viability, T/C (compound 0.3 µM)	viability, T/C (compound 0.949 µM)	viability, T/C (compound 3 µM)	viability, T/C (compound 0.000949 µM)	viability, T/C (compound 0.003 µM)
< 0.316 nM	CC(C)CC(NC(=O)C(Cc1ccccc1)NC(=O)c1cnccn1)B(O)O (configuration not stated)	11.1% and 6.84%	1.41% and 0.31%	0.63% and 0.15%	0.17%	0.14% and 0.17%	0.21% and 0.29%	–	–	–	–	–	–	–	–	–	–	–	–
5.04 nM and 3.85 nM	CC(C)CC(NC(=O)CNC(=O)c1cc(Cl)ccc1Cl)B1OC(=O)CC(CC(=O)O)(C(=O)O)O1 (configuration not stated)	102% and 100%	104% and 92.3%	68.4% and 56.8%	21.7% and 15.9%	3.57% and 2.13%	0.76% and 0.44%	–	–	–	–	–	–	–	–	–	–	–	–
> 10000 nM	CC(C)c1c(-c2ccccc2)nc2c(C#N)c[nH]n2c1=O	–	–	–	–	106% and 93%	91.8% and 84.6%	84.1% and 102%	100% and 86.9%	89.7% and 91%	75.7% and 79.8%	–	–	–	–	–	–	–	–
2410 nM and 3200 nM	CC1(C)CCC(CN2CCN(c3ccc(C(=O)NS(=O)(=O)c4ccc(NCC5CCOCC5)c([N+](=O)[O-])c4)c(Oc4cnc5[nH]ccc5c4)c3)CC2)=C(c2ccc(Cl)cc2)C1	–	–	–	–	87% and 94.2%	98.5% and 93.8%	91.7% and 89.7%	96.8% and 84.2%	36.5% and 50.3%	3.78% and 4.3%	–	–	–	–	–	–	–	–
29 nM and 19.7 nM	CC1COCCN1c1cc(-c2ccnn2C)c2ccnc(-c3ccn[nH]3)c2n1 (configuration not stated)	–	–	66.6% and 63.7%	59.2% and 61.9%	47.8% and 42.4%	39.4% and 29.3%	28.8% and 27.1%	14% and 10.7%	–	–	–	–	–	–	–	–	–	–
4640 nM and 4620 nM	CC1COCCN1c1cc(C2(S(C)(=N)=O)CC2)nc(-c2ccnc3[nH]ccc23)n1 (configuration not stated)	–	–	–	–	105% and 90.8%	101% and 105%	104% and 100%	87.4% and 81.6%	63% and 65.7%	24.9% and 20.9%	–	–	–	–	–	–	–	–
> 3000 nM	CCN(c1cc(-c2ccc(CN3CCOCC3)cc2)cc(C(=O)NCc2c(C)cc(C)[nH]c2=O)c1C)C1CCOCC1	–	–	–	–	–	–	–	–	–	–	119% and 92.8%	97.8% and 90.4%	101% and 97.6%	101% and 90.8%	105% and 96%	102% and 96.7%	–	–
75.4 nM and 66.7 nM	CC[C@@]1(O)C(=O)OCc2c1cc1n(c2=O)Cc2cc3c(CN(C)C)c(O)ccc3nc2-1	111% and 107%	97% and 103%	96.5% and 94.7%	92.4% and 88.5%	65.7% and 67.3%	44.6% and 40.1%	–	–	–	–	–	–	–	–	–	–	–	–
< 0.949 nM and 0.999 nM	CCc1c2c(nc3ccc(O)cc13)-c1cc3c(c(=O)n1C2)COC(=O)[C@]3(O)CC	–	–	–	–	–	–	–	–	–	–	21.1% and 17.5%	12.4% and 14.2%	9.01% and 6.61%	4.04% and 3.45%	–	–	46.8% and 51.2%	28.6% and 31%
> 3000 nM	COc1cc(C2c3cc4c(cc3C(OC3OC5COC(C)OC5C(O)C3O)C3COC(=O)C23)OCO4)cc(OC)c1O (configuration not stated)	–	–	–	–	–	–	–	–	–	–	91.2% and 110%	86.7% and 112%	83% and 88.5%	77% and 84.2%	75% and 81.7%	49.3% and 59.2%	–	–
205 nM and 196 nM	COc1cc(Nc2ncc3c(n2)-c2ccc(Cl)cc2C(c2c(F)cccc2OC)=NC3)ccc1C(=O)O	–	–	76.9% and 95.7%	79.1% and 75.3%	76.3% and 75.3%	67.7% and 64.7%	39.2% and 42.6%	5.79% and 5.84%	–	–	–	–	–	–	–	–	–	–
